# Measurements taken from patent US8785483B2, “Methods for treating COPD” (The Board of Regents of the University of Texas System, priority 2010, dated 2014).
# System: STAT-6
# Experiment: RWE-induced STAT-6 phosphorylation in mouse lung epithelium (immunostaining)
# Assay type: in vivo
# Conditions: RWE-sensitized and challenged mice, fidarestat 7 mg/kg body wt/day in drinking water, 20 h after challenge
# Description: FIGS. 9A-9B. AR inhibition prevents phosphorylation of STAT-6 in mouse lung epithelium. The mice were sensitized and challenged with PBS or RWE, without or with AR inhibitor and 20 h later lungs were perfused and fixed with 4% paraformaldehyde, embedded in paraffin, and sectioned to […]. The sections were immunostained with p-STAT-6 specific antibodies using immunofluoroscence secondary antibodies (A) or DAB-based HRP conjugated antibodies counterstained with hematoxylin and eosin (B). Photomicrographs were acquired by fluorescence or light microscopy. A representative field for each group is shown (magnification: 200×). […] RWE, ragweed pollen extract; ARI, aldose reductase inhibitor.
# Wild type C57BL/6 and Balb/cJ mice were purchased from Harlan Sprague-Dawley (San Diego, Calif., USA) and AR null mice on C57BL/6 background were bread by us at Animal resource center, UTMB, Galveston, Tex. Six-eight weeks old female mice were sensitized with RWE as previously described (Hwang et al., FASEB J. 19: 795-797, 2005). […]
# Approximately 20 h after RWE-challenge, mice are killed, and their lungs perfused and fixed with 4% paraformaldehyde, embedded in paraffin, and 5 μm sections were obtained. […] Photomicrographs were acquired by a Photometrix CoolSNAP Fx camera mounted on a NIKON Eclipse TE 200 UV microscope using fluorescence or bright-field microscopy, respectively.
structure (smiles),measurement,value
"NC(=O)[C@@H]1C[C@]2(NC(=O)NC2=O)c2cc(F)ccc2O1 [fidarestat, (2S,4S)-2-aminoformyl-6-fluoro-spiro[chroman-4,4′-imidazolidine]-2′,5′-dione]",RWE-induced phospho-STAT-6 staining in lung epithelium,prevented by AR inhibition
